# Results as given in patent US9481659B2, “Selective heterocyclic sphingosine 1 phosphate receptor modulators” (Celgene International II SÀRL, priority 2011, dated 2016).
# Structures can show the parent of a compound that is named as a salt.
# Molecular target: S1P1/EDG1 (Homo sapiens, UniProt P21453)
# Test: S1P1 CRE-bla CHOK1 reporter assay, inhibition of Forskolin induced cAMP
# Format: cell-based
# Conditions: agonist activity range; S1P1 CRE-bla CHOK1 cells, 2 μM Forskolin; read-out: S1P1 ACTIVITY
# Protocol: Generation of S1P1-Mediated Inhibition of cAMP Reporter Assay
# A mammalian expression plasmid containing S1P1/EDG1 cloned into pcDNA3.1 was purchased from Missouri S&T cDNA Resource Centre. […] S1P1/pcDNA3.1 was transfected into the CRE-bla CHO K1 (Invitrogen) cell line, and stable single cell clones were selected using standard techniques.
# S1P1 CRE-Bla CHOK1 Reporter Assay—Characterization of S1P1 Agonists
# Cells were seeded into 384-well black wall/clear bottom plates at 10^4 cells/well/19.5 μl assay media (DMEM-phenol free, 0.5% charcoal/dextran stripped serum, 2 mM glutamine, 0.1 mM NEAA, 1 mM Na-Pyruvate, 25 mM Hepes) and incubated for 18 hrs at 37° C. in 5% CO2. Dose response curves (10-point) were generated in 10 mM Hepes, 0.1% Pluronic F127, in the presence of Forskolin. Cells were treated with 0.5 μl compound in the presence of 2 μM Forskolin for 4 hrs at 37° C. The FRET-based β-lactamase fluorescent substrate (LiveBLAzer™-FRET B/G Loading Kit CC4-AM; Invitrogen) was prepared according to manufacturer's directions, and incubated with cells for 2 hrs at room temperature.
# S1P1/EDG1, sequence (P21453 whole entry): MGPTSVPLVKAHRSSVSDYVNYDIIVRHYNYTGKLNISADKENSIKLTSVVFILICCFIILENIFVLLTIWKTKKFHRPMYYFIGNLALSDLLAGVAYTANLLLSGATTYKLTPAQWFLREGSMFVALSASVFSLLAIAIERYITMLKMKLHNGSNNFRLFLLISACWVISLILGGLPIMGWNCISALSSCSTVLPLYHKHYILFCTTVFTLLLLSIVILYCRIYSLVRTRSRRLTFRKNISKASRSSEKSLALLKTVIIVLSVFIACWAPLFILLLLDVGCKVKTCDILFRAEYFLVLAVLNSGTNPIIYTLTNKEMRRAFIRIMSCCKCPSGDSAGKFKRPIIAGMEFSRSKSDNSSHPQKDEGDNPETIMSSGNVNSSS
row,SMILES,EC50
1,CC(C)Oc1ccc(-c2ncc(-c3cccc4c3CC[C@H]4NS(=O)(=O)C3CC3)s2)cc1C#N [Compound 117],0.05 to 0.5 nM
2,CC(C)Oc1ccc(-c2ncc(-c3cccc4c3CC[C@H]4NS(=O)(=O)Cc3ccccc3)s2)cc1C#N [Compound 120],0.5 to 5 nM
3,CC(C)Oc1ccc(-c2ncc(-c3cccc4c3CC[C@H]4NS(=O)(=O)CCN3CCOCC3)s2)cc1C#N [Compound 121],0.5 to 5 nM
4,CC(C)Oc1ccc(-c2ncc(-c3cccc4c3CC[C@H]4NS(=O)(=O)CCN(C)C)s2)cc1C#N [Compound 123],0.5 to 5 nM
5,CNCCS(=O)(=O)N[C@@H]1CCc2c(-c3cnc(-c4ccc(OC(C)C)c(C#N)c4)s3)cccc21 [Compound 126],0.5 to 5 nM
6,CC(C)Oc1ccc(-c2ncc(-c3cccc4c3CC[C@H]4NS(=O)(=O)CCN3CCC3)s2)cc1C#N [Compound 127],0.5 to 5 nM
7,CC(C)Oc1ccc(-c2ncc(-c3cccc4c3CC[C@H]4NS(=O)(=O)CCN3CCCC3)s2)cc1C#N [Compound 130],0.5 to 5 nM
8,CC(C)Oc1ccc(-c2ncc(-c3cccc4c3CC[C@@H]4NS(=O)(=O)CCN3CC[C@@H](O)C3)s2)cc1C#N [Compound 131],0.5 to 5 nM
9,CC(C)Oc1ccc(-c2ncc(-c3cccc4c3CC[C@H]4NS(=O)(=O)CCN3CC[C@@H](O)C3)s2)cc1C#N [Compound 133],0.5 to 5 nM
10,CC(C)Oc1ccc(-c2ncc(-c3cccc4c3CC[C@H]4NS(=O)(=O)CCN3CC[C@H](O)C3)s2)cc1C#N [Compound 134],0.5 to 5 nM
11,CC(C)Oc1ccc(-c2ncc(-c3cccc4c3CC[C@H]4NS(=O)(=O)CCN3CC[C@@H](N)C3)s2)cc1C#N [Compound 135],> 5 nM
12,CC(C)Oc1ccc(-c2ncc(-c3cccc4c3CC[C@H]4NS(=O)(=O)CCN3CC[C@H](N)C3)s2)cc1C#N [Compound 136],> 5 nM
13,CC(C)Oc1ccc(-c2ncc(-c3cccc4c3CC[C@H]4NS(=O)(=O)CCN3CCCCC3)s2)cc1C#N [Compound 140],> 5 nM
14,"CC(C)Oc1ccc(-c2ncc(-c3cccc4c3CC[C@@H]4NS(=O)(=O)CCN3CCC[C@@H](O)C3)s2)cc1C#N [Compound 141, N—((S)-4-(2-(3-cyano-4-isopropoxyphenyl)thiazol-5-yl)-2,3-dihydro-1H-inden-1-yl)-2-((R)-3-hydroxypiperidin-1-yl)ethanesulfonamide]",0.5 to 5 nM
15,"CC(C)Oc1ccc(-c2ncc(-c3cccc4c3CC[C@H]4NS(=O)(=O)CCN3CCC[C@@H](O)C3)s2)cc1C#N [Compound 143, N—((R)-4-(2-(3-cyano-4-isopropoxyphenyl)thiazol-5-yl)-2,3-dihydro-1H-inden-1-yl)-2-((R)-3-hydroxypiperidin-1-yl)ethanesulfonamide]",0.5 to 5 nM
16,CC(C)Oc1ccc(-c2ncc(-c3cccc4c3CC[C@H]4NS(=O)(=O)CCN3CCC[C@H](O)C3)s2)cc1C#N [Compound 144],0.5 to 5 nM
17,CC(C)Oc1ccc(-c2ncc(-c3cccc4c3CC[C@H]4NS(=O)(=O)CCN3CCC(O)CC3)s2)cc1C#N [Compound 146],0.5 to 5 nM
18,CC(C)Oc1ccc(-c2ncc(-c3cccc4c3CC[C@H]4NS(=O)(=O)CCN3CCNCC3)s2)cc1C#N [Compound 151],> 5 nM
19,"COC(=O)CS(=O)(=O)N[C@@H]1CCc2c(-c3cnc(-c4ccc(OC(C)C)c(C#N)c4)s3)cccc21 [Compound 154, (R)-methyl 2-(N-(4-(2-(3-cyano-4-isopropoxyphenyl)thiazol-5-yl)-2,3-dihydro-1H-inden-1-yl)sulfamoyl)acetate]",0.05 to 0.5 nM
20,COC(=O)CCS(=O)(=O)N[C@@H]1CCc2c(-c3cnc(-c4ccc(OC(C)C)c(C#N)c4)s3)cccc21 [Compound 156],0.05 to 0.5 nM
21,"CC(C)Oc1ccc(-c2ncc(-c3cccc4c3CC[C@H]4NS(=O)(=O)CC(=O)O)s2)cc1C#N [Compound 158, (R)-2-(N-(4-(2-(3-cyano-4-isopropoxyphenyl)thiazol-5-yl)-2,3-dihydro-1H-inden-1-yl)sulfamoyl)acetic acid]",< 0.05 nM
22,CC(C)Oc1ccc(-c2ncc(-c3cccc4c3CC[C@H]4NS(=O)(=O)CCC(=O)O)s2)cc1C#N [Compound 160],< 0.05 nM
23,"CC(C)Oc1ccc(-c2ncc(-c3cccc4c3CC[C@H]4NS(=O)(=O)CCO)s2)cc1C#N [Compound 164, (R)—N-(4-(2-(3-cyano-4-isopropoxyphenyl)thiazol-5-yl)-2,3-dihydro-1H-inden-1-yl)-2-hydroxyethanesulfonamide]",0.05 to 0.5 nM
24,CC(C)Oc1ccc(-c2ncc(-c3cccc4c3CC[C@H]4NC(=O)N(C)C)s2)cc1C#N [Compound 168],0.05 to 0.5 nM
25,CC(C)Oc1ccc(-c2ncc(-c3cccc4c3CC[C@H]4NC(=O)N3CC(O)C3)s2)cc1C#N [Compound 171],0.05 to 0.5 nM
26,CC(C)Oc1ccc(-c2ncc(-c3cccc4c3CC[C@H]4NC(=O)N3CC[C@@H](O)C3)s2)cc1C#N [Compound 174],0.05 to 0.5 nM

row,SMILES,EC50
1,CC(C)Oc1ccc(-c2ncc(-c3cccc4c3CC[C@H]4NC(=O)N3CC[C@H](O)C3)s2)cc1C#N [Compound 177],0.05 to 0.5 nM
2,CC(C)Oc1ccc(-c2ncc(-c3cccc4c3CC[C@H]4NC(=O)N3CC[C@@H](N)C3)s2)cc1C#N [Compound 178],0.05 to 0.5 nM
3,CC(C)Oc1ccc(-c2ncc(-c3cccc4c3CC[C@H]4NC(=O)N3CC[C@H](N)C3)s2)cc1C#N [Compound 179],0.5 to 5 nM
4,CC(C)Oc1ccc(-c2ncc(-c3cccc4c3CC[C@H]4NC(=O)N3CC[C@H](N(C)C)C3)s2)cc1C#N [Compound 182],0.5 to 5 nM
5,CC(C)Oc1ccc(-c2ncc(-c3cccc4c3CC[C@H]4NC(=O)N3CC[C@@H](N(C)C)C3)s2)cc1C#N [Compound 183],0.5 to 5 nM
6,CC(C)Oc1ccc(-c2ncc(-c3cccc4c3CC[C@H]4NC(=O)N3CCNCC3)s2)cc1C#N [Compound 188],0.5 to 5 nM
7,CC(C)Oc1ccc(-c2ncc(-c3cccc4c3CC[C@H]4NC(=O)N3CCN(C)CC3)s2)cc1C#N [Compound 190],0.5 to 5 nM
8,CC(C)Oc1ccc(-c2ncc(-c3cccc4c3CC[C@H]4NC(=O)N3CCC(N(C)C)CC3)s2)cc1C#N [Compound 192],> 5 nM
9,CC(C)Oc1ccc(-c2ncc(-c3cccc4c3CC[C@H]4NC(=O)N3CCC(CO)CC3)s2)cc1C#N [Compound 195],0.5 to 5 nM
10,CC(C)Oc1ccc(-c2ncc(-c3cccc4c3CC[C@@H]4NC(=O)N3CCC[C@@H](O)C3)s2)cc1C#N [Compound 196],0.5 to 5 nM
11,CC(C)Oc1ccc(-c2ncc(-c3cccc4c3CC[C@H]4NC(=O)N3CCC[C@H](O)C3)s2)cc1C#N [Compound 197],0.5 to 5 nM
12,CC(C)Oc1ccc(-c2ncc(-c3cccc4c3CC[C@H]4NC(=O)N3CCC[C@@H](O)C3)s2)cc1C#N [Compound 198],0.05 to 0.5 nM
13,CC(C)Oc1ccc(-c2ncc(-c3cccc4c3CC[C@H]4NC(=O)N3CCC[C@H](O)C3)s2)cc1C#N [Compound 199],0.05 to 0.5 nM
14,CC(C)Oc1ccc(-c2ncc(-c3cccc4c3CC[C@H]4NC(=O)N3CCC(CC(=O)O)CC3)s2)cc1C#N [Compound 200],0.05 to 0.5 nM
15,CC(C)Oc1ccc(-c2ncc(-c3cccc4c3CC[C@H]4NC(=O)N3CCC(O)CC3)s2)cc1C#N [Compound 202],0.5 to 5 nM
16,COC(=O)CC1CCN(C(=O)N[C@@H]2CCc3c(-c4cnc(-c5ccc(OC(C)C)c(C#N)c5)s4)cccc32)CC1 [Compound 204],0.5 to 5 nM
17,"CC(C)Oc1ccc(-c2ncc(-c3cccc4c3CC[C@H]4NCCS(C)(=O)=O)s2)cc1C#N [Compound 220, (R)-2-isopropoxy-5-(5-(1-((2-(methylsulfonyl)ethyl)amino)-2,3-dihydro-1H-inden-4-yl)thiazol-2-yl)benzonitrile]",0.05 to 0.5 nM
18,"CC(C)Oc1ccc(-c2nnc(-c3cccc4c3CCC[C@H]4N)s2)cc1C#N [Compound 228, (R)-5-(5-(5-amino-5,6,7,8-tetrahydronaphthalen-1-yl)-1,3,4-thiadiazol-2-yl)-2-isopropoxybenzonitrile hydrochloride]",0.5 to 5 nM
19,"CC(C)Oc1ccc(-c2nnc(-c3cccc4c3CCC[C@@H]4N)s2)cc1C#N [Compound 229, (S)-5-(5-(5-amino-5,6,7,8-tetrahydronaphthalen-1-yl)-1,3,4-thiadiazol-2-yl)-2-isopropoxybenzonitrile hydrochloride]",0.5 to 5 nM
20,"CC(C)Oc1ccc(-c2ncc(-c3cccc4c3CCC[C@H]4N)s2)cc1C#N [Compound 230, (R)-5-(5-(5-amino-5,6,7,8-tetrahydronaphthalen-1-yl)thiazol-2-yl)-2-isopropoxybenzonitrile hydrochloride]",0.5 to 5 nM
21,"CC(=O)N[C@@H]1CCCc2c(-c3nnc(-c4ccc(OC(C)C)c(C#N)c4)s3)cccc21 [Compound 231, (R)—N-(5-(5-(3-cyano-4-isopropoxyphenyl)-1,3,4-thiadiazol-2-yl)-1,2,3,4-tetrahydronaphthalen-1-yl) acetamide]",0.05 to 0.5 nM
22,"CC(=O)N[C@H]1CCCc2c(-c3nnc(-c4ccc(OC(C)C)c(C#N)c4)s3)cccc21 [Compound 232, (S)—N-(5-(5-(3-cyano-4-isopropoxyphenyl)-1,3,4-thiadiazol-2-yl)-1,2,3,4-tetrahydronaphthalen-1-yl)acetamide]",0.5 to 5 nM
23,CC(C)Oc1ccc(-c2nnc(-c3cccc4c3CCC[C@H]4NC(=O)c3ccncc3)s2)cc1C#N [Compound 233],0.5 to 5 nM
24,CC(C)Oc1ccc(-c2nnc(-c3cccc4c3CCC[C@H]4NC(=O)c3cccnc3)s2)cc1C#N [Compound 234],0.5 to 5 nM
25,CC(C)Oc1ccc(-c2nnc(-c3cccc4c3CCC[C@H]4NC(=O)c3ccccn3)s2)cc1C#N [Compound 235],0.5 to 5 nM
